Structures can show the parent of a compound that is named as a salt. Each block holds one compound with its values, some of them ahead of it.
Legend:
[1] = target: T1, Thymidine phosphorylase (Escherichia coli K-12, UniProt P07650); assay: Inhibition of Thymidine phosphorylase from Escherichia coli; no inhibition at 213 uM
[2] = target: T1, Thymidine phosphorylase; assay: Inhibition of Thymidine phosphorylase from Escherichia coli; no inhibition at 47.2 uM
[3] = target: T1, Thymidine phosphorylase; assay: Inhibition of Thymidine phosphorylase from Escherichia coli; no inhibition at 137 uM
[4] = target: T1, Thymidine phosphorylase; assay: Inhibition of Thymidine phosphorylase from Escherichia coli; no inhibition at 207 uM
[5] = target: T1, Thymidine phosphorylase; assay: Inhibition of Thymidine phosphorylase from Escherichia coli; no inhibition at 148 uM
[6] = target: T1, Thymidine phosphorylase

T1 sequence (P07650 whole entry): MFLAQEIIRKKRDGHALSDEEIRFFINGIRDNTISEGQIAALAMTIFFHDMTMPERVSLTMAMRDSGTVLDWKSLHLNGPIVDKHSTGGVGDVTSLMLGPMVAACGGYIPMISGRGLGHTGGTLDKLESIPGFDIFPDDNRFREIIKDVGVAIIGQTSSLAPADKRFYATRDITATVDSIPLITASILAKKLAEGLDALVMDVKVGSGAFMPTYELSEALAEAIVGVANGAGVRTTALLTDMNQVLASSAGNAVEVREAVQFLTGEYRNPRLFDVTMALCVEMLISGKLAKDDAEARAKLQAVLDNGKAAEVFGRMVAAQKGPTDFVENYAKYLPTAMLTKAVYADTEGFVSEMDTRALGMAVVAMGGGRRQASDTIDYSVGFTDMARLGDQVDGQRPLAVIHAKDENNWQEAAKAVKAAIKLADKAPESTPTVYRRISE

Compound: Nc1ncncc1Br
- IC50 [1]: No inhibition

Compound: Cl.N=C1CCCN1Cc1nc[nH]c(=O)c1Cl
- IC50 [2]: No inhibition

Compound: O=c1[nH]cnc2[nH]ccc12
- IC50 [4]: No inhibition

Next, values leading:

- IC50 [3]: No inhibition
Compound: Nc1[nH]c(=O)ncc1Br

- IC50 [5]: No inhibition
Compound: O=c1ncc2cc[nH]c2[nH]1

- IC50 [5]: No inhibition
Compound: Nc1nc[nH]c(=O)c1Br

Source: ChEMBL document CHEMBL1137985, “Synthesis and enzymatic evaluation of xanthine oxidase-activated prodrugs based on inhibitors of thymidine phosphorylase” (Bioorg Med Chem Lett, 2004)
